Results published in the supplement of paper PMC8671470.

How the values were obtained:
Details in all cases: 72 h
BV-173 [1] = test system: BV-173
Summary of the method: (§1)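 Fifteen myeloid leukaemia lines in RPMI 1640 were treated for 72 h at 37 °C and 5% CO2 with five tenfold doses from 1 to 10,000 nM, in duplicate. ATP luminescence was normalised to vehicle and to a positive control at 10 µM, then fitted with a four-parameter log-logistic model. The IC50 came from these fits.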

HEL [2] = test system: HEL
Summary of the method: as §1

HL-60 [3] = test system: HL-60
Summary of the method: as §1

K-562 [4] = test system: K-562
Summary of the method: as §1

KCL-22 [5] = test system: KCL-22
Summary of the method: as §1

KG-1 [6] = test system: KG-1
Summary of the method: as §1

KU-812 [7] = test system: KU-812
Summary of the method: as §1

LAMA-84 [8] = test system: LAMA-84
Summary of the method: as §1

ML-2 [9] = test system: ML-2
Summary of the method: as §1

MOLM-13 [10] = test system: MOLM-13
Summary of the method: as §1

MV4-11 [11] = test system: MV4-11
Summary of the method: as §1

Mono-Mac-6 [12] = test system: Mono-Mac-6
Summary of the method: as §1

NOMO-1 [13] = test system: NOMO-1
Summary of the method: as §1

SHI-1 [14] = test system: SHI-1
Summary of the method: as §1

THP-1 [15] = test system: THP-1
Summary of the method: as §1

BV-173 [16] = experiment: cell viability (% survival relative to DMSO control, bortezomib = 0%); higher = less cytotoxic
Summary of the method: (§2)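 Reported values are percent survival from duplicate wells, averaged. Fifteen myeloid leukaemia cell lines were treated in 384-well plates with compounds at 1, 10, 100, 1000 or 10000 nM for 72 h at 37 °C in 5% CO2. Signals from CellTiter-Glo luminescence were scaled with vehicle as 100% and a 10 µM positive control as 0%.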

HEL [17] = experiment: as above
Summary of the method: as §2

HL-60 [18] = experiment: as above
Summary of the method: as §2

K-562 [19] = experiment: as above
Summary of the method: as §2

KCL-22 [20] = experiment: as above
Summary of the method: as §2

KG-1 [21] = experiment: as above
Summary of the method: as §2

KU-812 [22] = experiment: as above
Summary of the method: as §2

LAMA-84 [23] = experiment: as above
Summary of the method: as §2

ML-2 [24] = experiment: as above
Summary of the method: as §2

MOLM-13 [25] = experiment: as above
Summary of the method: as §2

MV4-11 [26] = experiment: as above
Summary of the method: as §2

Mono-Mac-6 [27] = experiment: as above
Summary of the method: as §2

NOMO-1 [28] = experiment: as above
Summary of the method: as §2

SHI-1 [29] = experiment: as above
Summary of the method: as §2

THP-1 [30] = experiment: as above
Summary of the method: as §2

Which results are given for COc1cc(/C=C/c2ccc(OC)cc2OC)cc(OC)c1 [2,3',4,5'-Tetramethoxystilbene]?
IC50 (cell viability) (BV-173 [1]): > 10 µM; IC50 (cell viability) (HEL [2]): > 10 µM; IC50 (cell viability) (HL-60 [3]): > 10 µM; IC50 (cell viability) (K-562 [4]): > 10 µM; IC50 (cell viability) (KCL-22 [5]): > 10 µM; IC50 (cell viability) (KG-1 [6]): > 10 µM; IC50 (cell viability) (KU-812 [7]): > 10 µM; IC50 (cell viability) (LAMA-84 [8]): > 10 µM; IC50 (cell viability) (ML-2 [9]): > 10 µM; IC50 (cell viability) (MOLM-13 [10]): > 10 µM; IC50 (cell viability) (MV4-11 [11]): > 10 µM; IC50 (cell viability) (Mono-Mac-6 [12]): > 10 µM; IC50 (cell viability) (NOMO-1 [13]): > 10 µM; IC50 (cell viability) (SHI-1 [14]): > 10 µM; IC50 (cell viability) (THP-1 [15]): > 10 µM; cell viability (BV-173 [16]; 1 nM): 104%; cell viability (BV-173 [16]; 10 nM): 104%; cell viability (BV-173 [16]; 100 nM): 99.1%; cell viability (BV-173 [16]; 1000 nM): 103%; cell viability (BV-173 [16]; 10000 nM): 79.6%; cell viability (HEL [17]; 1 nM): 106%; cell viability (HEL [17]; 10 nM): 106%; cell viability (HEL [17]; 100 nM): 99.2%; cell viability (HEL [17]; 1000 nM): 103%; cell viability (HEL [17]; 10000 nM): 106%; cell viability (HL-60 [18]; 1 nM): 109%; cell viability (HL-60 [18]; 10 nM): 86.2%; cell viability (HL-60 [18]; 100 nM): 96.2%; cell viability (HL-60 [18]; 1000 nM): 105%; cell viability (HL-60 [18]; 10000 nM): 81.2%; cell viability (K-562 [19]; 1 nM): 108%; cell viability (K-562 [19]; 10 nM): 113%; cell viability (K-562 [19]; 100 nM): 106%; cell viability (K-562 [19]; 1000 nM): 101%; cell viability (K-562 [19]; 10000 nM): 89.5%; cell viability (KCL-22 [20]; 1 nM): 94.7%; cell viability (KCL-22 [20]; 10 nM): 110%; cell viability (KCL-22 [20]; 100 nM): 98.7%; cell viability (KCL-22 [20]; 1000 nM): 106%; cell viability (KCL-22 [20]; 10000 nM): 104%; cell viability (KG-1 [21]; 1 nM): 94.9%; cell viability (KG-1 [21]; 10 nM): 110%; cell viability (KG-1 [21]; 100 nM): 91.9%; cell viability (KG-1 [21]; 1000 nM): 101%; cell viability (KG-1 [21]; 10000 nM): 79.7%; cell viability (KU-812 [22]; 1 nM): 101%; cell viability (KU-812 [22]; 10 nM): 95.5%; cell viability (KU-812 [22]; 100 nM): 96.9%; cell viability (KU-812 [22]; 1000 nM): 97.4%; cell viability (KU-812 [22]; 10000 nM): 76.8%; cell viability (LAMA-84 [23]; 1 nM): 103%; cell viability (LAMA-84 [23]; 10 nM): 104%; cell viability (LAMA-84 [23]; 100 nM): 99.4%; cell viability (LAMA-84 [23]; 1000 nM): 96.4%; cell viability (LAMA-84 [23]; 10000 nM): 94.3%; cell viability (ML-2 [24]; 1 nM): 80.1%; cell viability (ML-2 [24]; 10 nM): 102%; cell viability (ML-2 [24]; 100 nM): 102%; cell viability (ML-2 [24]; 1000 nM): 115%; cell viability (ML-2 [24]; 10000 nM): 72.9%; cell viability (MOLM-13 [25]; 1 nM): 105%; cell viability (MOLM-13 [25]; 10 nM): 105%; cell viability (MOLM-13 [25]; 100 nM): 86.4%; cell viability (MOLM-13 [25]; 1000 nM): 107%; cell viability (MOLM-13 [25]; 10000 nM): 100%; cell viability (MV4-11 [26]; 1 nM): 103%; cell viability (MV4-11 [26]; 10 nM): 106%; cell viability (MV4-11 [26]; 100 nM): 98.4%; cell viability (MV4-11 [26]; 1000 nM): 98.4%; cell viability (MV4-11 [26]; 10000 nM): 86%; cell viability (Mono-Mac-6 [27]; 1 nM): 94.6%; cell viability (Mono-Mac-6 [27]; 10 nM): 97.2%; cell viability (Mono-Mac-6 [27]; 100 nM): 95.3%; cell viability (Mono-Mac-6 [27]; 1000 nM): 100%; cell viability (Mono-Mac-6 [27]; 10000 nM): 104%; cell viability (NOMO-1 [28]; 1 nM): 97.5%; cell viability (NOMO-1 [28]; 10 nM): 106%; cell viability (NOMO-1 [28]; 100 nM): 95.7%; cell viability (NOMO-1 [28]; 1000 nM): 108%; cell viability (NOMO-1 [28]; 10000 nM): 94.9%; cell viability (SHI-1 [29]; 1 nM): 99.7%; cell viability (SHI-1 [29]; 10 nM): 123%; cell viability (SHI-1 [29]; 100 nM): 99.4%; cell viability (SHI-1 [29]; 1000 nM): 104%; cell viability (SHI-1 [29]; 10000 nM): 98.9%; cell viability (THP-1 [30]; 1 nM): 97.3%; cell viability (THP-1 [30]; 10 nM): 107%; cell viability (THP-1 [30]; 100 nM): 108%; cell viability (THP-1 [30]; 1000 nM): 109%; cell viability (THP-1 [30]; 10000 nM): 75.3%
